Results: US20260364181A1, “AKR1C3 Targeted Heterobifunctional Small Molecule Proteolysis Targeting Chimeras” (BOARD OF REGENTS OF THE UNIVERSITY OF NEBRASKA, priority 2022, published 2026)

Columns and labels:
ARv7 = ARv7 protein degradation in 22Rv1 prostate cancer cells (Western blot); type: cell-based
Procedure: Protein Expression via Western Blot. 22Rv1 cells were seeded in a 6-well plate and incubated overnight. Next day, the cells were treated with varying concentrations of 6 (1 and 10 μM) and 5 (0.5, 1, 10, 50, 100, 250, and 500 nM; 1, 10, and 50 μM) for 24 hours and 5 (1 and 10 nM) at different time points (0, 2, 4, 6, 12, 16, 24, 48, and 72 h). Whole cell lysates were extracted in RIPA lysis buffer containing protease inhibitor and EDTA (Fisher Scientific, PI78440). Protein concentrations in each sample was estimated following BCA assay (Pierce™ BCA protein assay kit, Fisher Scientific, PI23227) as per the manufacturer's protocol. Proteins were standardized using RIPA lysis buffer with Laemelli SDS sample buffer (Thermo Scientific, AAJ61337AC) and heated at 1000C for 15 minutes. The proteins were resolved on a 4-12% premade gel (Invitrogen, NW04120BOX) at 60-90 V in 20× Bolt™ MES SDS running buffer (Fisher Scientific, B000202) and transferred onto a nitrocellulose membrane (Invitrogen, IB23001) using iBlot 2. The membranes were blocked with 2.5% non-fat dry milk (Bio-Rad, 1706404) for 1 h, and the membrane was incubated overnight on a rocking platform at 4 °C with the desired primary antibodies against AKR1C3 (mouse mAb, 1:200, Sigma, A6229), AKR1C1/C2 (rabbit mAb, 1:500, Abcam, ab179448), ARv7 (rabbit mAb, 1:500, Abcam, ab198394) and actin (mouse mAb, 1:1,000, ThermoFisher, MA5-11869). The membranes were washed three times, 10 minutes each, with 1×Tris-buffered saline (TBST, Bio-Rad, 1706435) in 0.1% Tween 20, on a rocking platform wherein they were incubated with rabbit anti-mouse IgG (ThermoFisher, 31450) or goat anti-rabbit IgG (Jackson ImmunoResearch, 111-035-003) secondary antibody (1:1,000) horseradish peroxidase conjugate for 1 hour. […] Bands were quantified by densitometry using ImageJ software and fold change in AKR1C3, AKR1C1/C2, and ARv7 protein expression was determined based on actin controls. […]

AKR1C3 = molecular target: T1, AKR1C3 (Homo sapiens, UniProt P42330); test: AKR1C3 protein degradation in 22Rv1 prostate cancer cells (Western blot); type: cell-based; set-up: 22Rv1 prostate cancer cells that express high levels of AKR1C3; host or cells: 22Rv1
T1 sequence (P42330 1-323): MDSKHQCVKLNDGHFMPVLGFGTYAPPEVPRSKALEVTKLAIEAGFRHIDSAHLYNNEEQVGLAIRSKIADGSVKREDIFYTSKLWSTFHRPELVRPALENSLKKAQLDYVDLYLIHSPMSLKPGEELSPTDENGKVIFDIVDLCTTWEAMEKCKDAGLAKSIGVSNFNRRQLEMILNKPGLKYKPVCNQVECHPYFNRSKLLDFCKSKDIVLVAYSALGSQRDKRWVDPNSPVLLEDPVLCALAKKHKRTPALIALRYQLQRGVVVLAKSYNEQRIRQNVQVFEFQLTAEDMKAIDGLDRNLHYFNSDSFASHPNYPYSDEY
Procedure: Protein Expression via Western Blot. 22Rv1 cells were seeded in a 6-well plate and incubated overnight. Next day, the cells were treated with varying concentrations of 6 (1 and 10 μM) and 5 (0.5, 1, 10, 50, 100, 250, and 500 nM; 1, 10, and 50 μM) for 24 hours and 5 (1 and 10 nM) at different time points (0, 2, 4, 6, 12, 16, 24, 48, and 72 h). Whole cell lysates were extracted in RIPA lysis buffer containing protease inhibitor and EDTA (Fisher Scientific, PI78440). Protein concentrations in each sample was estimated following BCA assay (Pierce™ BCA protein assay kit, Fisher Scientific, PI23227) as per the manufacturer's protocol. Proteins were standardized using RIPA lysis buffer with Laemelli SDS sample buffer (Thermo Scientific, AAJ61337AC) and heated at 1000C for 15 minutes. The proteins were resolved on a 4-12% premade gel (Invitrogen, NW04120BOX) at 60-90 V in 20× Bolt™ MES SDS running buffer (Fisher Scientific, B000202) and transferred onto a nitrocellulose membrane (Invitrogen, IB23001) using iBlot 2. The membranes were blocked with 2.5% non-fat dry milk (Bio-Rad, 1706404) for 1 h, and the membrane was incubated overnight on a rocking platform at 4 °C with the desired primary antibodies against AKR1C3 (mouse mAb, 1:200, Sigma, A6229), AKR1C1/C2 (rabbit mAb, 1:500, Abcam, ab179448), ARv7 (rabbit mAb, 1:500, Abcam, ab198394) and actin (mouse mAb, 1:1,000, ThermoFisher, MA5-11869). The membranes were washed three times, 10 minutes each, with 1×Tris-buffered saline (TBST, Bio-Rad, 1706435) in 0.1% Tween 20, on a rocking platform wherein they were incubated with rabbit anti-mouse IgG (ThermoFisher, 31450) or goat anti-rabbit IgG (Jackson ImmunoResearch, 111-035-003) secondary antibody (1:1,000) horseradish peroxidase conjugate for 1 hour. The membranes were again washed three times with 1×TBST, upon which they were exposed to LI-COR WesternSure PREMIUM chemiluminescent substrate (Fisher Scientific, 50-489-552) and developed in a dark room with Konica Minolta equipment. Bands were quantified by densitometry using ImageJ software and fold change in AKR1C3, AKR1C1/C2, and ARv7 protein expression was determined based on actin controls. […]
The AKR1C3 degradation effect of PROTAC 5 was screened across a range of concentrations to identify a suitable treatment protocol. 22Rv1 cells were treated with increasing concentrations of […], DMSO or lenalidomide 6 at 1 μM and 10 μM for 24 hours, and the degradation profile was determined by Western blot analysis with antibody for AKR1C3.

[1] = 10 nM, 2 hour pretreatment with MG132 (3 μM), in words

For O=C(O)/C=C/c1cc(C(=O)NCc2ccc(OCc3cn(CCOCCOCC(=O)Nc4cccc5c4CN(C4CCC(=O)NC4=O)C5=O)nn3)cc2)cc(-c2ccccc2)c1 (centres unmarked) [Compound IA, (E)-3-(5-((4-((1-(2-(2-(2-((2-(2,6-dioxopiperidin-3-yl)-1-oxoisoindolin-4-yl)amino)-2-oxoethoxy)ethoxy)ethyl)-1H-1,2,3-triazol-4-yl)methoxy)benzyl)carbamoyl)-[1,1 ? biphenyl]-3-yl)acrylic acid], the “ARv7 expression after proteasome inhibitor pretreatment” value (ARv7; [1]) was “not affected”, the ARv7 expression (ARv7; 10 nM, 72 hours, in words) was “almost complete amelioration of ARv7 expression” and the DC50 (ARv7; 72 hours, read-out: ARv7 DC50 (half-maximal degradation concentration)) was 70 nM. The “mean AKR1C3 degradation” value (AKR1C3; 0.5 nM, 24 h, in words) was “no degradation”, the “time course of AKR1C3 levels” value (AKR1C3; 1 nM, 24 through 72 hours post-treatment, in words) was “time-dependent decrease in AKR1C3 levels” and the “onset of decrease in AKR1C3 levels” value (AKR1C3; 1 nM, post-treatment) was 24 h. For the same compound, the “degradation of AKR1C3 (in words)” value (AKR1C3; 10 nM, 0-72 h) was “significant degradation”, the “AKR1C3 degradation after proteasome inhibitor pretreatment” value (AKR1C3; [1]) was “effectively blocked” and the AKR1C3 protein expression (AKR1C3; 10 nM, 4 hours of treatment, in words) was “effectively reduced AKR1C3 protein expression”. For the same compound, the “AKR1C3 degradation compared with Compound 3” value (AKR1C3; 10 nM, 72 hour incubation, in words) was “outperformed Compound 3”, the “onset of AKR1C3 degradation” value (AKR1C3; 10 nM, post-treatment) was 4 h and the AKR1C3 expression (AKR1C3; 1-50 μM, 24 h, in words) was “increased AKR1C3 expression”. For the same compound, the Dmax at 0.01 µM (AKR1C3; 22Rv1, 10 nM, 72 hours, read-out: maximal degradation of AKR1C3) was ~75% and the AKR1C3 expression (AKR1C3; 100-500 nM, 24 h, in words) was “increased AKR1C3 expression”.
